Source: BigSolDB 2.1

CN1c2ccccc2C(=O)N2CCc3c([nH]c4ccccc34)[C@H]21
solubility (mole fraction)
Details | 283.15 K | 288.15 K | 293.15 K | 298.15 K | 303.15 K | 308.15 K | 313.15 K | 318.15 K | 323.15 K
in acetone | 0.000192 | 0.000226 | 0.000267 | 0.000315 | 0.000364 | 0.000426 | 0.000491 | 0.000571 | 0.000651
in ethanol | 5.94e-05 | 7.31e-05 | 8.95e-05 | 0.00011 | 0.000132 | 0.000157 | 0.000186 | 0.000222 | 0.000263
in isopropanol | 6.79e-05 | 8.16e-05 | 9.91e-05 | 0.000121 | 0.000142 | 0.00017 | 0.0002 | 0.000237 | 0.000276
in methanol | 3.43e-05 | 4.34e-05 | 5.4e-05 | 6.72e-05 | 8.31e-05 | 0.000102 | 0.000124 | 0.000149 | 0.000182
